Assays:
[1] = Inhibition of rice alpha-glucosidase using p-nitrophenyl glycoside as substrate assessed as release of p-nitrophenol measured by spectrometric assay; design: species or system Oryza sativa; conditions: read-out: IC50
[2] = Inhibition of rat intestinal maltase using maltose as substrate assessed as release of D-glucose measured by spectrometric assay
[3] = target: T1, Sucrase-isomaltase, intestinal (Rattus norvegicus, UniProt P23739); assay: Inhibition of rat intestinal sucrase using p-nitrophenyl glycoside as substrate assessed as release of p-nitrophenol measured by spectrometric assay
T1 sequence (P23739 1-1013 limits assumed): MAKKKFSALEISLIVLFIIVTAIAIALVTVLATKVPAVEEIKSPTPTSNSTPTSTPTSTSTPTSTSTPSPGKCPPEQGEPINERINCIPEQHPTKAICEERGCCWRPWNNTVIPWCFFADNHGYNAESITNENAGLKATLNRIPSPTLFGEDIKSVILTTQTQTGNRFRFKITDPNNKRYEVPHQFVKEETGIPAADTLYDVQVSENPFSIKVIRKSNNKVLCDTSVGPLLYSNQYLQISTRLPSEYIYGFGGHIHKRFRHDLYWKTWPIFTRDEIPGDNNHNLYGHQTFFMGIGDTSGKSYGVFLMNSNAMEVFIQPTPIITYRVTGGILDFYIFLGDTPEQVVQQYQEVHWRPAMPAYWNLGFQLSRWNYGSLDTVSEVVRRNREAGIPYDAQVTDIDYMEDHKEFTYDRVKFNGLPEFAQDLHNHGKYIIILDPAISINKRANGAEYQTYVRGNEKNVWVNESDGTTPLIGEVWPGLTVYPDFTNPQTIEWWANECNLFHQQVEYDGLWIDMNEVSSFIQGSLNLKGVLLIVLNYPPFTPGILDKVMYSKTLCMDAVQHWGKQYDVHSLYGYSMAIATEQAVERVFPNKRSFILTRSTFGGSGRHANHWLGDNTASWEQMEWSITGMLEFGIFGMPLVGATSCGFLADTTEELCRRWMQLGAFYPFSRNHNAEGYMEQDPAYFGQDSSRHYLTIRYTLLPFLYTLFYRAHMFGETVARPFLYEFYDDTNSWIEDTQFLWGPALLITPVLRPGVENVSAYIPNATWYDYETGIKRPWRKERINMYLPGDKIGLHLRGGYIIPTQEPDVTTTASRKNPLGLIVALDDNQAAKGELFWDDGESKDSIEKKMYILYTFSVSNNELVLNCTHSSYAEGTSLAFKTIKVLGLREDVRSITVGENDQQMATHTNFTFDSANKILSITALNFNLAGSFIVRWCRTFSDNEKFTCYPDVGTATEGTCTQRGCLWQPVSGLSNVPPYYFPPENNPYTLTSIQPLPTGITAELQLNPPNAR
T1 sequence (P23739 1014-1841 limits assumed): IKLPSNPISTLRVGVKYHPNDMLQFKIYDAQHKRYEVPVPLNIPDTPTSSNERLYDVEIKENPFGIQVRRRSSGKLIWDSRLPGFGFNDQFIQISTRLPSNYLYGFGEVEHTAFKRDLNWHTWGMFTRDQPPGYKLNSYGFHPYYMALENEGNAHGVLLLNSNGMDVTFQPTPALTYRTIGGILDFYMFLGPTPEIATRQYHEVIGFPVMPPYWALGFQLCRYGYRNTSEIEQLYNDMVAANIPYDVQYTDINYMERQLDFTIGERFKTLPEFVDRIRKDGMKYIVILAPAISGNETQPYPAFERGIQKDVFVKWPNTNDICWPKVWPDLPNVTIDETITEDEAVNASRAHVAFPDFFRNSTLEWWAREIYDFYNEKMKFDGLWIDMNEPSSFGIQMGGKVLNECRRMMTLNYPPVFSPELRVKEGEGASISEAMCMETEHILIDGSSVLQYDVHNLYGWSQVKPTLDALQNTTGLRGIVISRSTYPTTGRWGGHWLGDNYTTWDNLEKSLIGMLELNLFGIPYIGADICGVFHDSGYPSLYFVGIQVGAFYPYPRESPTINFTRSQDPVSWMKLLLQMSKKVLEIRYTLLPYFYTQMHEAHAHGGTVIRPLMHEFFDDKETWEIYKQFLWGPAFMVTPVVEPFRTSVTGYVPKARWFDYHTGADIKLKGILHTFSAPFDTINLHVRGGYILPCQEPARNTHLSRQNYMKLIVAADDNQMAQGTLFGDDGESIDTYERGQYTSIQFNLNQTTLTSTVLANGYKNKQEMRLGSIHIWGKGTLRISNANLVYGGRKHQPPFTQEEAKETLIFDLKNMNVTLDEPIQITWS

[4] = target: T1, Sucrase-isomaltase, intestinal; assay: Inhibition of rat intestinal isomaltase using p-nitrophenyl glycoside as substrate assessed as release of p-nitrophenol measured by spectrometric assay
[5] = Inhibition of almond beta-glucosidase using p-nitrophenyl glycoside as substrate assessed as release of p-nitrophenol measured by spectrometric assay; design: species or system Prunus dulcis
Prunus dulcis = assay: Inhibition of almond beta-glucosidase using p-nitrophenyl glycoside as substrate assessed as release of p-nitrophenol at 1000 uM measured by spectrometric assay relative to control
[6] = Inhibition of bovine liver beta-glucosidase using p-nitrophenyl glycoside as substrate assessed as release of p-nitrophenol measured by spectrometric assay; design: species or system Bos taurus
Bos taurus [7] = species: Bos taurus; assay: Inhibition of bovine liver beta-glucosidase using p-nitrophenyl glycoside as substrate assessed as release of p-nitrophenol at 1000 uM measured by spectrometric assay relative to control; assay type: tissue-based
Alpha-galactosidase = Alpha-galactosidase (Coffea arabica, UniProt Q42656); assay: Inhibition of coffee beans alpha-galactosidase using p-nitrophenyl glycoside as substrate assessed as release of p-nitrophenol measured by spectrometric assay
Alpha-galactosidase, sequence (Q42656 whole entry): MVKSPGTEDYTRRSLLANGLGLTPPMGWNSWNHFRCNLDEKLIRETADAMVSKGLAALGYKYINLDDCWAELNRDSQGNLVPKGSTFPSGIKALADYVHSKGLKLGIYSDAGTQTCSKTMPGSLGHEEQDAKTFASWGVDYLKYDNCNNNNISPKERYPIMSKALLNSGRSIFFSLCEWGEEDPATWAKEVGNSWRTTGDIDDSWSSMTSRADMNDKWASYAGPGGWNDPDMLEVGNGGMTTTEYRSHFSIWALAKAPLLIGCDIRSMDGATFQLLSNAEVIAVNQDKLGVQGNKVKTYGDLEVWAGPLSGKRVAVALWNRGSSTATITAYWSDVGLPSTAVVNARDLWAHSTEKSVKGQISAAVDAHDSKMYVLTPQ

[8] = target: Alpha-galactosidase (Coffea arabica) (UniProt Q42656); assay: Inhibition of coffee beans alpha-galactosidase using p-nitrophenyl glycoside as substrate assessed as release of p-nitrophenol at 1000 uM measured by spectrometric assay relative to control
Alpha-galactosidase (Coffea arabica), sequence (Q42656 16-378 limits assumed): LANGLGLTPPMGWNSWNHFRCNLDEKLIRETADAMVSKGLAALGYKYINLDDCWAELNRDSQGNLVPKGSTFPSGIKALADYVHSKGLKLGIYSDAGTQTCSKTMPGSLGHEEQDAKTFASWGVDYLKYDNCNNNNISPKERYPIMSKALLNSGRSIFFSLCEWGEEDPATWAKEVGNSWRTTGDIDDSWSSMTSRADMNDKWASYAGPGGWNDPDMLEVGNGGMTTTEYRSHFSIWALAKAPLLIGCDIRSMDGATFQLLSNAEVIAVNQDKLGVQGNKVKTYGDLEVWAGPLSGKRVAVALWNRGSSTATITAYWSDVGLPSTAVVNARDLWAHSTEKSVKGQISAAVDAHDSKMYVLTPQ

[9] = Inhibition of bovine liver beta-galactosidase using p-nitrophenyl glycoside as substrate assessed as release of p-nitrophenol measured by spectrometric assay; assay type: tissue-based, Bos taurus
Bos taurus [10] = species: Bos taurus; assay: Inhibition of bovine liver beta-galactosidase using p-nitrophenyl glycoside as substrate assessed as release of p-nitrophenol at 1000 uM measured by spectrometric assay relative to control
[11] = Inhibition of jack bean alpha-mannosidase using p-nitrophenyl glycoside as substrate assessed as release of p-nitrophenol measured by spectrometric assay; design: species or system Canavalia ensiformis
[12] = target: T2, Alpha-mannosidase (Canavalia ensiformis) (UniProt C0HJB3); assay: Inhibition of jack bean alpha-mannosidase using p-nitrophenyl glycoside as substrate assessed as release of p-nitrophenol at 1000 uM measured by spectrometric assay relative to control
T2 sequence (whole entry): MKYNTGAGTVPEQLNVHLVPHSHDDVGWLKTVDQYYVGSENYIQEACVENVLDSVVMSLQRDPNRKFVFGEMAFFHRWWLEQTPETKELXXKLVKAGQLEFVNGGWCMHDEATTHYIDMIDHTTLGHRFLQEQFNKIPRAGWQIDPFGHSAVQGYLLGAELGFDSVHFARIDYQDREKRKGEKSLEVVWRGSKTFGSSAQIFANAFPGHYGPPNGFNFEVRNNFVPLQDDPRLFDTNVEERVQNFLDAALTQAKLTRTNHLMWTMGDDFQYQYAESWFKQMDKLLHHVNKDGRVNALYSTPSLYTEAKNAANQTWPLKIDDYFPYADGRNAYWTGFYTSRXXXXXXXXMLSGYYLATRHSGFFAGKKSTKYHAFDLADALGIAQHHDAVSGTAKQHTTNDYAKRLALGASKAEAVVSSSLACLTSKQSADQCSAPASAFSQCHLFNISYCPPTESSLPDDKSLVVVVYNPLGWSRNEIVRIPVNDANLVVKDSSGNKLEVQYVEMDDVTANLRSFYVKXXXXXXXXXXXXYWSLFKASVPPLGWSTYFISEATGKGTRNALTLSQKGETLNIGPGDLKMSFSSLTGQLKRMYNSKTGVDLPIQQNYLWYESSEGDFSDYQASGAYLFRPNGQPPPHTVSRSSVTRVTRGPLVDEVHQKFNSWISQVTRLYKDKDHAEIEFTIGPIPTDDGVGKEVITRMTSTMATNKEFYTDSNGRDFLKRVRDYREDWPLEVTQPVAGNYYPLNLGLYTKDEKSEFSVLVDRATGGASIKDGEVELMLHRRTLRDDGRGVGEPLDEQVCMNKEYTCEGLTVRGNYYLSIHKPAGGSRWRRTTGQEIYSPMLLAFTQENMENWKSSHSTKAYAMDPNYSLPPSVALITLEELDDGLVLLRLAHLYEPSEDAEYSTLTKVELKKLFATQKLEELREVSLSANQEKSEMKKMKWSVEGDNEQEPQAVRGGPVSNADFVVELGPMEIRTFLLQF

[13] = Inhibition of snail beta-mannosidase using p-nitrophenyl glycoside as substrate assessed as release of p-nitrophenol measured by spectrometric assay; design: species or system Helix pomatia
Helix pomatia = assay: Inhibition of snail beta-mannosidase using p-nitrophenyl glycoside as substrate assessed as release of p-nitrophenol at 1000 uM measured by spectrometric assay relative to control
[14] = target: T3, Tissue alpha-L-fucosidase (Bos taurus, UniProt Q2KIM0); assay: Inhibition of bovine kidney alpha-L-fucosidase using p-nitrophenyl glycoside as substrate assessed as release of p-nitrophenol measured by spectrometric assay
T3 sequence (Q2KIM0 whole entry): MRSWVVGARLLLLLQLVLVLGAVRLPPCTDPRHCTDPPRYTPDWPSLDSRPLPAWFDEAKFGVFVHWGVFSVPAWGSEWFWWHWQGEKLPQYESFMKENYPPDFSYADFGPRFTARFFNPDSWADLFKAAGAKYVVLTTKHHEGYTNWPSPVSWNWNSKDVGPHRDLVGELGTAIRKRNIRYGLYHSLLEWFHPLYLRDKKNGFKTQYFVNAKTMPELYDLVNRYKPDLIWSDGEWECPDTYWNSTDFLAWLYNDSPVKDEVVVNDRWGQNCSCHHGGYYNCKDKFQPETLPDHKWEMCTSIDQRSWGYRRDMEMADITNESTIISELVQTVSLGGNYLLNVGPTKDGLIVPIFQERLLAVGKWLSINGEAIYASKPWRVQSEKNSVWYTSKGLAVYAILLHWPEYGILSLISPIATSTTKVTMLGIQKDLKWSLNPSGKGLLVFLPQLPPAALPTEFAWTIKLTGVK

[15] = target: T4, Tissue alpha-L-fucosidase (Bos taurus) (UniProt Q2KIM0); assay: Inhibition of bovine kidney alpha-L-fucosidase using p-nitrophenyl glycoside as substrate assessed as release of p-nitrophenol at 1000 uM measured by spectrometric assay relative to control; assay type: tissue-based
T4 sequence (whole entry): T3 sequence (Q2KIM0 whole entry)

[16] = Inhibition of porcine kidney alpha-trehalase using p-nitrophenyl glycoside as substrate assessed as release of p-nitrophenol measured by spectrometric assay; design: species or system Sus scrofa
Sus scrofa = species: Sus scrofa; assay: Inhibition of porcine kidney alpha-trehalase using p-nitrophenyl glycoside as substrate assessed as release of p-nitrophenol at 1000 uM measured by spectrometric assay relative to control
[17] = Inhibition of Aspergillus niger amyloglucosidase using p-nitrophenyl glycoside as substrate assessed as release of p-nitrophenol measured by spectrometric assay
Aspergillus niger = assay: Inhibition of Aspergillus niger amyloglucosidase using p-nitrophenyl glycoside as substrate assessed as release of p-nitrophenol at 1000 uM measured by spectrometric assay relative to control
[18] = Inhibition of Penicillium decumbens alpha-L-rhamnosidase using p-nitrophenyl glycoside as substrate assessed as release of p-nitrophenol measured by spectrometric assay
Penicillium decumbens = assay: Inhibition of Penicillium decumbens alpha-L-rhamnosidase using p-nitrophenyl glycoside as substrate assessed as release of p-nitrophenol at 1000 uM measured by spectrometric assay relative to control
Beta-glucuronidase = Beta-glucuronidase (Escherichia coli (strain K12), UniProt P05804); assay: Inhibition of Escherichia coli beta-glucuronidase using p-nitrophenyl glycoside as substrate assessed as release of p-nitrophenol measured by spectrometric assay
Beta-glucuronidase, sequence (P05804 whole entry): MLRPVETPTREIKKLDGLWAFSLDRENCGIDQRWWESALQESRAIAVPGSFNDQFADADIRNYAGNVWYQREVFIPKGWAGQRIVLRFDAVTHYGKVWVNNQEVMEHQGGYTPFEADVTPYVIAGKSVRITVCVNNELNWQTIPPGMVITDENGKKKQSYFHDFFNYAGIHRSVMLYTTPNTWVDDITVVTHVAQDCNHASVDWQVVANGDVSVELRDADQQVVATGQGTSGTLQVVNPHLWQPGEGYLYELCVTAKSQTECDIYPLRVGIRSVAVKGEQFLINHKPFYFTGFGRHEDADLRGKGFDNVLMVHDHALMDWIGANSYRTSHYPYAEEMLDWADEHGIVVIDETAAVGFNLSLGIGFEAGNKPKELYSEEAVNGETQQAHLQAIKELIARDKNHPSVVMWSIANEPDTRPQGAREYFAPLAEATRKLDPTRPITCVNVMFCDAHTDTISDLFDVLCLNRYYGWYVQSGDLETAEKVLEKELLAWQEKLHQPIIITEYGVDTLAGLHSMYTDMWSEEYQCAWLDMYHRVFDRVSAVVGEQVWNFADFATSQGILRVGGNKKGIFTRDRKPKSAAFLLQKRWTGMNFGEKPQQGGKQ

[19] = target: Beta-glucuronidase (Escherichia coli (strain K12)) (UniProt P05804); assay: Inhibition of Escherichia coli beta-glucuronidase using p-nitrophenyl glycoside as substrate assessed as release of p-nitrophenol at 1000 uM measured by spectrometric assay relative to control
Beta-glucuronidase (Escherichia coli (strain K12)), sequence (P05804 whole entry, looked up): as the sequence (P05804 whole entry) above

Rattus norvegicus = species: Rattus norvegicus; assay: Inhibition of rat intestinal maltase using maltose as substrate assessed as release of D-glucose at 1000 uM measured by spectrometric assay

SMILES | IC50 [1] [µM] | IC50 [2] [µM] | IC50 [5] | inhibition (Prunus dulcis) [%] | IC50 (Alpha-galactosidase) | inhibition [8] [%] | IC50 [11] | inhibition [12] [%] | IC50 [13] | inhibition (Helix pomatia) [%] | IC50 [14] | inhibition [15] [%] | IC50 [16] | inhibition (Sus scrofa) [%] | IC50 [17] | inhibition (Aspergillus niger) [%] | IC50 [18] | inhibition (Penicillium decumbens) [%] | IC50 (Beta-glucuronidase) | inhibition [19] [%] | other results
CC[C@@]1(CO)NC[C@H](O)[C@@H](O)[C@@H]1O.Cl | 14 | 6.6 | Not Active | 6.2 | Not Active | 3.5 | Not Active | 2.4 | Not Active | 1.1 | Not Active | 2.1 | Not Active | 1.5 | Not Active | 0 | Not Active | 0 | Not Active | 0.4 | IC50 ([3]; read-out: IC50): 8.8 µM; IC50 ([4]; read-out: IC50): 50 µM; IC50 [6]: Not Active; inhibition (Bos taurus [7]): 9.2%; IC50 [9]: Not Active; inhibition (Bos taurus [10]): 18.4%
CCCCCCCC[C@@]1(CO)NC[C@H](O)[C@@H](O)[C@@H]1O.Cl | 123 | 224 | Not Active | 14.8 | Not Active | 3.3 | Not Active | 9.6 | Not Active | 4.9 | Not Active | 5.5 | Not Active | 0 | Not Active | 0.83 | Not Active | 6 | Not Active | 9.4 | IC50 [3]: Not Active; IC50 [4]: Not Active; IC50 [6]: Not Active; inhibition (Bos taurus [7]): 19%; IC50 [9]: Not Active; inhibition (Bos taurus [10]): 44.9%; inhibition (Rattus norvegicus): 23.2%
CCCCCCCCCC[C@@]1(CO)NC[C@H](O)[C@@H](O)[C@@H]1O.Cl | 159 | 263 | Not Active | 8.8 | Not Active | 2.1 | Not Active | 4.7 | Not Active | 0 | Not Active | 0 | Not Active | 3 | Not Active | 10.5 | Not Active | 0 | Not Active | 3.2 | IC50 [3]: Not Active; IC50 [4]: Not Active; IC50 ([6]; read-out: IC50): 83 µM; IC50 ([9]; read-out: IC50): 43 µM; inhibition (Rattus norvegicus): 0%
C[C@@]1(CO)NC[C@H](O)[C@@H](O)[C@@H]1O.Cl | 38 | 22 | Not Active | 9.5 | Not Active | 9.3 | Not Active | 9.6 | Not Active | 2 | Not Active | 13.8 | Not Active | 7.5 | Not Active | 2.7 | Not Active | 0 | Not Active | 17.7 | IC50 ([3]; read-out: IC50): 25 µM; IC50 [4]: Not Active; IC50 [6]: Not Active; inhibition (Bos taurus [7]): 3.6%; IC50 [9]: Not Active; inhibition (Bos taurus [10]): 14.1%

Molecules with a lower IC50 [1], results first:

IC50 [1] [µM] | IC50 [2] [µM] | IC50 [5] | inhibition (Prunus dulcis) [%] | IC50 (Alpha-galactosidase) | inhibition [8] [%] | IC50 [11] | inhibition [12] [%] | IC50 [13] | inhibition (Helix pomatia) [%] | IC50 [14] | inhibition [15] [%] | IC50 [16] | inhibition (Sus scrofa) [%] | IC50 [17] | inhibition (Aspergillus niger) [%] | IC50 [18] | inhibition (Penicillium decumbens) [%] | IC50 (Beta-glucuronidase) | inhibition [19] [%] | SMILES | other results
0.088 | 0.096 | Not Active | 5.7 | Not Active | 11 | Not Active | 7.9 | Not Active | 1.5 | Not Active | 9.9 | Not Active | 4.3 | Not Active | 1.9 | Not Active | 3.6 | Not Active | 8.6 | CCC[C@]1(CO)NC[C@H](O)[C@@H](O)[C@@H]1O.Cl | IC50 ([3]; read-out: IC50): 0.2 µM; IC50 ([4]; read-out: IC50): 1.7 µM; IC50 [6]: Not Active; inhibition (Bos taurus [7]): 10.3%; IC50 [9]: Not Active; inhibition (Bos taurus [10]): 15.7%
9.9 | 19 | Not Active | 6.9 | Not Active | 8 | Not Active | 2.4 | Not Active | 0 | Not Active | 0 | Not Active | 4.2 | Not Active | 11.9 | Not Active | 0 | Not Active | 2.5 | CCCCCCC[C@@]1(CO)NC[C@H](O)[C@@H](O)[C@@H]1O.Cl | IC50 ([3]; read-out: IC50): 89 µM; IC50 [4]: Not Active; IC50 [6]: Not Active; inhibition (Bos taurus [7]): 16.5%; IC50 [9]: Not Active; inhibition (Bos taurus [10]): 28.4%

— ChEMBL document CHEMBL4828725 (Eur J Med Chem, 2021)
